Measurements as given in patent US20060148850A1, “4-{'3-(Sulfonylamino) phenyl!'1-(cyclymethyl) piperidin-4-ylidene! methyl}benazmide derivativess as delta opioid receptor ligands for the treatment of pain, anxiety and functional gastrointestinal disorder” (AstraZeneca AB, priority 2003, published 2006).
Read-outs that look alike come from different tables or passages of the source.

Columns and labels:
cloned human δ receptors [1] = target: T1, cloned human δ receptors (Homo sapiens, UniProt P41143); test: Human δ receptor functional assay (GTP[γ]35S binding), high and low receptor expression; assay type: biochemical
T1 construct: expressed in transfected cells; host or cells: HEK-293S cells
T1 sequence (P41143 whole entry): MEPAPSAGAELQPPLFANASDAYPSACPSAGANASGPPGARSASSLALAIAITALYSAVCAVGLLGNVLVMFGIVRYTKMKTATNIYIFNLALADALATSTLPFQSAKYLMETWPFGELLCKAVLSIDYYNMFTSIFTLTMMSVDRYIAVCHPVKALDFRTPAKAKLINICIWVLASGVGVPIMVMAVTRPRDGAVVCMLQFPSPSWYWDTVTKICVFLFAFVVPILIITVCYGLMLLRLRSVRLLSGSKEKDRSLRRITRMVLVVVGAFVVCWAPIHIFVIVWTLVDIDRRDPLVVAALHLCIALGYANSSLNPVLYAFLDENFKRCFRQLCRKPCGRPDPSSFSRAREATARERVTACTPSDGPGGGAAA
Method: Human 293S cells expressing cloned human κ, δ and μ receptors and neomycin resistance are grown in suspension at 37° C. and 5% CO2 in shaker flasks containing calcium-free DMEM10% FBS, 5% BCS, 0.1% Pluronic F-68, and 600 μg/ml geneticin.
Cells are pelleted and resuspended in lysis buffer (50 mM Tris, pH 7.0, 2.5 mM EDTA, with PMSF added just prior to use to 0.1 mM from a 0.1 M stock in ethanol), incubated on ice for 15 min, then homogenized with a polytron for 30 sec. The suspension is spun at 1000 g (max) for 10 min at 4° C. The supernatant is saved on ice and the pellets resuspended and spun as before. The supernatants from both spins are combined and spun at 46,000 g(max) for 30 min. The pellets are resuspended in cold Tris buffer (50 mM Tris/Cl, pH 7.0) and spun again. The final pellets are resuspended in membrane buffer ( 50 mM Tris, 0.32 M sucrose, pH 7.0). Aliquots (1 ml) in polypropylene tubes are frozen in dry ice/ethanol and stored at −70° C. until use. The protein concentrations are determined by a modified Lowry assay with sodium dodecyl sulfate.
The agonist activity of the compounds is measured by determining the degree to which the compounds receptor complex activates the binding of GTP to G-proteins to which the receptors are coupled. In the GTP binding assay, GTP[γ]^35S is combined with test compounds and membranes from HEK-293S cells expressing the cloned human opioid receptors or from homogenised rat or mouse brain. Agonists stimulate GTP[γ]^35S binding in these membranes. The EC50 and Emax values of compounds are determined from dose-response curves. Right shifts of the dose response curve by the delta antagonist naltrindole are performed to verify that agonist activity is mediated through delta receptors. For human […] functional assays, EC50 (low) is measured when the human δ receptors used in the assay were expressed at lower levels in comparison with those used in determining EC50 (high). The Emax values were determined in relation to the standard δ agonist SNC80, i.e., higher than 100% is a compound that have better efficacy than SNC80.
Rat brain membranes are thawed at 37° C., passed 3 times through a 25-gauge blunt-end needle and diluted in the GTPYS binding (50 mM Hepes, 20 mM NaOH, 100 mM NaCl, 1 mM EDTA, 5 mM MgCl2, pH 7.4, Add fresh: 1 mM DTT, 0.1% BSA). 120 μM GDP final is added membranes dilutions. The EC50 and Emax of compounds are evaluated from 10-point dose-response curves done in 300 μl with the appropriate amount of membrane protein (20 μg/well) and 100000-130000 dpm of GTPγ^35S per well (0.11-0.14 nM). The basal and maximal stimulated binding are determined in absence and presence of 3 μM SNC-80. The assay performed on HEK 293s cells stably expressing cloned Delta receptors is done in a slightly different buffer (50 mM Hepes, 20 mM NaOH, 200 mM NaCl, 1 mM EDTA, 5 mM MgCl2, pH 7.4, Add fresh: 0.5% BSA, no DTT) and with a 3 μM final conc. of GDP.

cloned human δ receptors [2] = target: T1, cloned human δ receptors; test: Human δ receptor binding assay (125I-Deltorphin II displacement)
cloned human μ receptors = target: T2, cloned human μ receptors (Homo sapiens, UniProt P35372); test: Human μ receptor binding assay (125I-FK33824 displacement)
T2 construct: expressed in transfected cells; host or cells: Human 293S cells
T2 sequence (P35372 whole entry): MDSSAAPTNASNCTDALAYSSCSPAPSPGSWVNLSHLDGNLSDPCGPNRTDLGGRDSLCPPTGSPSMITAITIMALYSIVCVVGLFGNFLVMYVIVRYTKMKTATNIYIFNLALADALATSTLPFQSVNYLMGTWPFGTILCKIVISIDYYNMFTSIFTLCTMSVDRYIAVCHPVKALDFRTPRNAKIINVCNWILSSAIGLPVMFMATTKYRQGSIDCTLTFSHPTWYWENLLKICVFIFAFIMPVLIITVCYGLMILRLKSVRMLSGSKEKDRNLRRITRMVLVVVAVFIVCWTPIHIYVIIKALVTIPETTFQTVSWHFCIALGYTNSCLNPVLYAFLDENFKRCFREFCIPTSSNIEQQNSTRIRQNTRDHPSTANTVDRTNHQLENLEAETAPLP

cloned human κ receptors = cloned human κ receptors (Homo sapiens, UniProt P41145); test: Human κ receptor binding assay (125I-DPDYN displacement); conditions: Table 1
Chain of cloned human κ receptors (P41145 whole entry): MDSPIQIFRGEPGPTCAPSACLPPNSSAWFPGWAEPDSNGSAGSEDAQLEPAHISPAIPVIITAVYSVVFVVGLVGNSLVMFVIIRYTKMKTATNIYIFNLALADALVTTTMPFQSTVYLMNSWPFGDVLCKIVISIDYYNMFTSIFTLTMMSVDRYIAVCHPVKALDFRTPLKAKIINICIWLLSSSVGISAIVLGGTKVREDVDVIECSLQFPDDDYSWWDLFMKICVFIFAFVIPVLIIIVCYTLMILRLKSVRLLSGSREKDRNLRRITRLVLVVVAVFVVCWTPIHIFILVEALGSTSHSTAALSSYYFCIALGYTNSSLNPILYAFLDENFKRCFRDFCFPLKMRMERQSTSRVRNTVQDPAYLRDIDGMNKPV

[3] = target: T3, δ receptors in rat brain membranes (Rattus norvegicus, UniProt P33533); test: Rat brain functional assay (GTPγ35S binding); assay type: biochemical
T3 construct: membranes from HEK-293S cells expressing the cloned human opioid receptors or from homogenised rat or mouse brain; from tissue; host or cells: rat brain
T3 sequence (P33533 whole entry): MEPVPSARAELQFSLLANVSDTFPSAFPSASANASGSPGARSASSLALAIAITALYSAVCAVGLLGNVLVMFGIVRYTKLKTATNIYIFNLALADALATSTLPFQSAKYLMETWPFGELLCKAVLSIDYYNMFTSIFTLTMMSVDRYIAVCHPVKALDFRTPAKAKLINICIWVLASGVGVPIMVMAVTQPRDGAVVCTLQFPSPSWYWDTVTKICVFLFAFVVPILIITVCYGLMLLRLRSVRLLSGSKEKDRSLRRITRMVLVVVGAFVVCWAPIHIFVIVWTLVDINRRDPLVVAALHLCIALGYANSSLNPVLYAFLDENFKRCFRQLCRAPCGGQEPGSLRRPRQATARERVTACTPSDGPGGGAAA
Method: Rat brains are weighed and rinsed in ice-cold PBS (containing 2.5 mM EDTA, pH 7.4). The brains are homogenized with a polytron for 30 sec (rat) in ice-cold lysis buffer (50 mM Tris, pH 7.0,2.5 mM EDTA, with phenylmethylsulfonyl fluoride added just prior use to […] from a 0.5M stock in DMSO:ethanol).
The agonist activity of the compounds is measured by determining the degree to which the compounds receptor complex activates the binding of GTP to G-proteins to which the receptors are coupled. In the GTP binding assay, GTP[γ]^35S is combined with test compounds and membranes from HEK-293S cells expressing the cloned human opioid receptors or from homogenised rat or mouse brain. […] The EC50 and Emax values of compounds are determined from dose-response curves. […] For human a receptor functional assays, EC50 (low) is measured when the human δ receptors used in the assay were expressed at lower levels in comparison with those used in determining EC50 (high). […]
Rat brain membranes are thawed at 37° C., passed 3 times through a 25-gauge blunt-end needle and diluted in the GTPYS binding (50 mM Hepes, 20 mM NaOH, 100 mM NaCl, 1 mM EDTA, 5 mM MgCl2, pH 7.4, Add fresh: 1 mM DTT, 0.1% BSA). […] The EC50 and Emax of compounds are evaluated from 10-point dose-response curves done in 300 μl with the appropriate amount of membrane protein (20 μg/well) and 100000-130000 dpm of GTPγ^35S per well (0.11-0.14 nM). […]

[4] = Table 2, lower expression, relative to SNC80, range over compounds 1,2,4,5, read-out: Human δ %EMax (low)

CCN(CC)C(=O)c1ccc(C(=C2CCN(Cc3cccs3)CC2)c2cccc(NS(C)(=O)=O)c2)cc1 [Compound 1, N,N-diethyl-4-{{3-[(methylsulfonyl)amino]phenyl}[1-(thien-2-ylmethyl)piperidin-4-ylidene]methyl}benzamide]
EC50 (cloned human δ receptors [1]): 5.25 to 19.3 nM
Emax (cloned human δ receptors [1]; [4]): 106 to 126%
IC50 (cloned human δ receptors [2]): 0.18 to 0.35 nM
IC50 (cloned human μ receptors): 77.9 to 301 nM

CCN(CC)C(=O)c1ccc(C(=C2CCN(Cc3nccs3)CC2)c2cccc(NS(C)(=O)=O)c2)cc1 [Compound 5]
EC50 (cloned human δ receptors [1]): 5.25 to 19.3 nM
Emax (cloned human δ receptors [1]; [4]): 106 to 126%
IC50 (cloned human δ receptors [2]): 0.18 to 0.35 nM
IC50 (cloned human μ receptors): 77.9 to 301 nM

CCN(CC)C(=O)c1ccc(C(=C2CCN(Cc3ccccc3)CC2)c2cccc(NS(C)(=O)=O)c2)cc1 [Compound 3, N,N-diethyl-4-[[1-(phenylmethyl)-4-piperidinylidene][3-[(methylsulfonyl)amino]phenyl]methyl]-benzamide]
IC50 (cloned human κ receptors): 1050 nM
EC50 (cloned human δ receptors [1]): 0.53 nM
Emax (cloned human δ receptors [1]; Table 1, higher expression, relative to standard δ agonist SNC80, read-out: Human δ % EMax (high)): 99%
EC50 [3]: 1.32 nM
Emax ([3]; Table 1, rat brain membranes, relative to SNC80): 145%
IC50 (cloned human δ receptors [2]): 0.56 nM
IC50 (cloned human μ receptors): 35 nM

CCN(CC)C(=O)c1ccc(C(=C2CCN(Cc3ccco3)CC2)c2cccc(NS(C)(=O)=O)c2)cc1 [Compound 2, N,N-diethyl-4-[[l-(2-furanylmethyl)-4-piperidinylidene][3-[(methylsulfonyl)amino]phenyl]methyl]-benzamide]
EC50 (cloned human δ receptors [1]): 5.25 to 19.3 nM
Emax (cloned human δ receptors [1]; [4]): 106 to 126%
IC50 (cloned human δ receptors [2]): 0.18 to 0.35 nM
IC50 (cloned human μ receptors): 77.9 to 301 nM

CCN(CC)C(=O)c1ccc(C(=C2CCN(Cc3cccnc3)CC2)c2cccc(NS(C)(=O)=O)c2)cc1 [Compound 4, N,N-diethyl-4-[[3-[(methylsulfonyl)amino]phenyl][1-(3-pyridinylmethyl)4-piperidinylidene]methyl]-benzamide]
EC50 (cloned human δ receptors [1]): 5.25 to 19.3 nM
Emax (cloned human δ receptors [1]; [4]): 106 to 126%
IC50 (cloned human δ receptors [2]): 0.18 to 0.35 nM
IC50 (cloned human μ receptors): 77.9 to 301 nM
